In patent US20250099448A1, “HETEROCYCLIC COMPOUNDS” (Hoffmann-La Roche Inc., priority 2022, published 2025):

Molecular target: T1, MAGL protein (Homo sapiens, UniProt Q99685)
T1 sequence (Q99685 1-303): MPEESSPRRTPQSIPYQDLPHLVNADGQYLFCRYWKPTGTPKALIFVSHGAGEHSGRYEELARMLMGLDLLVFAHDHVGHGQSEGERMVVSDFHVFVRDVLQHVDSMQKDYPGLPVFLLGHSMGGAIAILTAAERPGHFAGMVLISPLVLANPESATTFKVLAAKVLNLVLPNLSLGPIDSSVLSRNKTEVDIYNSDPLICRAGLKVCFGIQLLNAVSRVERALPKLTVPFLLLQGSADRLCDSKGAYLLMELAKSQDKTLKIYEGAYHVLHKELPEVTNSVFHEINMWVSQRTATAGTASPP
Assay: 2-AG assay: MAGL inhibitory activity by hydrolysis of 2-arachidonoylglycerol to arachidonic acid, followed by mass spectrometry
Format: biochemical
Conditions: 8 μM 2-arachidonoylglycerol, 15 min preincubation, 30 min reaction at RT, RapidFire MS readout
How it was run: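 Activity was measured by RapidFire SPE–triple-quad MS as the ratio of arachidonic acid to d8-arachidonic acid after 2-AG hydrolysis (8 μM substrate, 30 min, RT, acetonitrile quench). Compounds, tested from 12.5 μM down to […], were first preincubated 15 min with MAGL in TRIS/EDTA/Tween-20 buffer containing 2.5% DMSO.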

Cc1cc(C(F)(F)F)nn1-c1ccc(C2CN(C(=O)N3CC4(CC(c5nnc(C6(O)CC6)[nH]5)C4)C3)C2)cc1 [compound 408]
IC50: 1.46 nM

N=S(=O)(c1cccc(OC(F)(F)F)c1)C1CC2(C1)CN(C(=O)N1CC3(CC(c4nnc(C5CC5)[nH]4)C3)C1)C2 (stereo not drawn) [compound 575]
IC50: 4.02 nM

N#Cc1ccc(CC2CC3(C2)CN(C(=O)N2CC4(CC(c5nc(C6(O)CC6)n[nH]5)C4)C2)C3)cc1C(F)(F)F [compound 629]
IC50: 1.45 nM

CC(F)(F)c1noc(CN2CC3(C2)CN(C(=O)N2CC4(CC(c5nc(C6CC6)n[nH]5)C4)C2)C3)n1 [compound 743]
IC50: 13.2 nM

O=C(N1CC2(CC(Cc3ncc(F)cc3Cl)C2)C1)N1CC2(CC(c3ncn[nH]3)C2)C1 [compound 789]
IC50: 404 nM

O=C(N1CC2(CC(Cc3cn(C4CC4)nc3C(F)(F)F)C2)C1)N1CC2(CC(c3nc(C4CC4)n[nH]3)C2)C1 [compound 405]
IC50: 0.57 nM

O=C(N1CC(c2ccc(C3(C(F)(F)F)CC3)cc2)C1)N1CC2(CC(c3nnc([C@H](O)C(F)(F)F)[nH]3)C2)C1 (single isomer, unassigned) [compound 230]
IC50: 3.89 nM

O=C(N1CC2(CCN(Cc3ccc(S(=O)(=O)C(F)(F)F)cc3)CC2)C1)N1CC2(CC(c3nnc(C4CC4)[nH]3)C2)C1 [compound 85]
IC50: 1.02 nM

NC1(c2nnc(C3CC4(C3)CN(C(=O)N3CC5(CC(Cc6ccc(C(F)(F)F)cn6)C5)C3)C4)[nH]2)CC1 [Example 948, [6-[5-(1-aminocyclopropyl)-4H-1,2,4-triazol-3-yl]-2-azaspiro[3.3]heptan-2-yl]-[6-[[5-(trifluoromethyl)-2-pyridyl]methyl]-2-azaspiro[3.3]heptan-2-yl]methanone]
IC50: 2.35 nM

O=C(N1CC2(CC(Cc3ncc(F)cc3Cl)C2)C1)N1CC2(CC(c3nnc(C4CC4)[nH]3)C2)C1 [compound 117]
IC50: 0.1 nM

N=S(=O)(c1cccc(CC2CC3(C2)CN(C(=O)N2CC4(CC(c5nnc(C6CC6)[nH]5)C4)C2)C3)c1)C(F)(F)F (racemic) [compound 125]
IC50: 0.08 nM

O=C(N1CC(NCc2ccc(F)cc2C(F)(F)F)C1)N1CC2(CC(c3nnc(C4CC4)[nH]3)C2)C1 [compound 196]
IC50: 111 nM

O=C(N1CC2(CC(Cc3ccc(S(=O)(=O)C(F)(F)F)cc3)C2)C1)N1CC2(CC(c3nc(C4CC(F)(F)C4)n[nH]3)C2)C1 [compound 526]
IC50: 4.6 nM

O=C(N1CC2(CCN(c3ncc(Cl)cc3F)CC2)C1)N1CC2(CC(c3nnc(C4CC4)[nH]3)C2)C1 [compound 281]
IC50: 1.02 nM

CC(C)Oc1nc(CC2CC3(C2)CN(C(=O)N2CC4(CC(c5nc(C6CC6)n[nH]5)C4)C2)C3)ccc1C(F)(F)F [compound 965]
IC50: 0.03 nM

CS(=O)(=O)c1cc(Cl)ccc1-c1ccc(C2CN(C(=O)N3CC4(CC(c5ncn[nH]5)C4)C3)C2)cc1 [compound 454]
IC50: 129 nM

O=C(N1CC2(CCC(NS(=O)(=O)c3cccc(OC(F)(F)F)c3)CC2)C1)N1CC2(CC(c3nnc(C4CC4)[nH]3)C2)C1 [compound 348]
IC50: 0.63 nM

O=C(N1CC2(CC(CNC3(C(F)(F)F)CC3)C2)C1)N1CC2(CC(c3nnc(C4CC4)[nH]3)C2)C1 [compound 54]
IC50: 2.8 nM

O=C(N1CC2(CC(Cc3cnc(C(F)(F)F)cn3)C2)C1)N1CC2(CC(c3nc(C4(F)CC4)n[nH]3)C2)C1 [compound 424]
IC50: 0.46 nM

O=C(N1CC2(CC(c3nnc(C4CC4)[nH]3)C2)C1)N1CC2(C1)CN(S(=O)(=O)c1cccc(OC(F)(F)F)c1)C2 [compound 87]
IC50: 8.21 nM

O=C(N1CC2(CC(Cc3ccc4nc(C(F)(F)F)nn4c3)C2)C1)N1CC2(CC(c3nc(C4CC4)n[nH]3)C2)C1 [compound 993]
IC50: 0.8 nM

O=C(O)c1ccccc1-c1ccc(C2CN(C(=O)N3CC4(CC(c5nnc(C6CC6)[nH]5)C4)C3)C2)cc1 [Example 390, 2-[4-[1-[6-(5-cyclopropyl-4H-1,2,4-triazol-3-yl)-2-azaspiro[3.3]heptane-2-carbonyl]azetidin-3-yl]phenyl]benzoic Acid]
IC50: 1.06 nM

O=C(N1CC2(CCC(Cc3cnc(C(F)(F)F)cn3)C2)C1)N1CC2(CC(c3nnc(C4CC4)[nH]3)C2)C1 (single isomer, unassigned) [compound 150]
IC50: 0.82 nM

O=C(N1CC(c2ccc(N3CC4(CCCC4)C3)nc2)C1)N1CC2(CC(c3nnc(C4CC4)[nH]3)C2)C1 [compound 302]
IC50: 0.48 nM

O=C(N1CC2(CC(Cc3ncc(F)cc3F)C2)C1)N1CC2(CC(c3nnc(C4(O)CC4)[nH]3)C2)C1 [compound 116]
IC50: 2.39 nM

O=C(N1CC2(CC(c3nnc(C4CC4)[nH]3)C2)C1)N1CC2(C1)CN(S(=O)(=O)c1ccc(C(F)(F)F)cc1)C2 [compound 103]
IC50: 25 nM

O=C(N1CC2(CC(c3nc(C4(O)CC4)n[nH]3)C2)C1)N1CC2(CN(Cc3ccc(S(=O)(=O)C(F)(F)F)cc3F)C2)C1 [compound 451]
IC50: 1.52 nM

O=C(N1CC2(CC(NCC3(C(F)(F)F)CC3)C2)C1)N1CC2(CC(c3nnc(C4CC4)[nH]3)C2)C1 [compound 221]
IC50: 8.51 nM

O=C(N1CC2(CC(c3nc(C4CC4)n[nH]3)C2)C1)N1CC2(CC(n3cnc(C4CC4)n3)C2)C1 [compound 746]
IC50: 8.64 nM

O=C(N1CC(C23CC(c4nnc(C5(C(F)(F)F)CC5)o4)(C2)C3)C1)N1CC2(CC(c3nc(C4(O)CC4)n[nH]3)C2)C1 [compound 573]
IC50: 904 nM

O=C(N1CC2(CCC(Oc3ccnc(C(F)(F)F)n3)CC2)C1)N1CC2(CC(c3nnc(C4CC4)[nH]3)C2)C1 [compound 73]
IC50: 3.24 nM

N=[S@](=O)(c1cccc(CC2CC3(C2)CN(C(=O)N2CC4(CC(c5nnc(C6CC6)[nH]5)C4)C2)C3)c1)C(F)(F)F (single isomer, unassigned) [compound 126]
IC50: 0.06 nM

O=C(N1CC2(CC(Cc3cncc(S(=O)(=O)C(F)(F)F)c3)C2)C1)N1CC2(CC(c3nc(C4(O)CC4)n[nH]3)C2)C1 [compound 560]
IC50: 1.25 nM

O=C(N1CC(C23CC(c4cc(C5CC5)n[nH]4)(C2)C3)C1)N1CC2(CC(c3nc(C4CC4)n[nH]3)C2)C1 [compound 514]
IC50: 0.47 nM

N#Cc1cc(F)ccc1C12CC(C3CN(C(=O)N4CC5(CC(c6nc(C7(O)CC7)n[nH]6)C5)C4)C3)(C1)C2 [compound 509]
IC50: 5.16 nM

O=C(N1CC(c2ccc(N3CC4(CCCC4)C3)nc2)C1)N1CC2(CC(c3nc(C4(O)CC4)n[nH]3)C2)C1 [compound 937]
IC50: 1.58 nM

CS(=O)(=O)c1ccc(CN2CCC3(CC2)CN(C(=O)N2CC4(CC(c5nnc(C6CC6)[nH]5)C4)C2)C3)cc1 [compound 179]
IC50: 33.6 nM

N=S(=O)(c1ccc(CC2CC3(C2)CN(C(=O)N2CC4(CC(c5nc(C6CC6)n[nH]5)C4)C2)C3)cc1)C(F)(F)F (stereo not drawn) [compound 2]
IC50: 0.19 nM

CS(=O)(=O)c1ccc(COC2CN(C(=O)N3CC4(CC(c5nnc(C6CC6)[nH]5)C4)C3)C2)c(F)c1 [compound 330]
IC50: 59.9 nM

O=C(N1CC2(CC(Oc3ncc(C(F)(F)F)cc3F)C2)C1)N1CC2(CC(c3nc(C4CC4)n[nH]3)C2)C1 [compound 665]
IC50: 0.23 nM

O=C(N1CC2(CC(Cc3ccc(F)cc3F)C2)C1)N1CC2(CC(c3nc(C4COC4)n[nH]3)C2)C1 [compound 835]
IC50: 2.37 nM

O=C(N1CC2(CCN(Cc3nc(C(F)(F)F)cs3)CC2)C1)N1CC2(CC(c3nc(C4CC4)n[nH]3)C2)C1 [compound 732]
IC50: 6.18 nM

O=C(N1CC(OCc2ccc(C(F)(F)F)cc2F)C1)N1CC2(CC(c3nnc([C@H](O)C(F)(F)F)[nH]3)C2)C1 (single isomer, unassigned) [Example 389]
IC50: 15.2 nM

Cn1nccc1CN1CC2(C1)CN(C(=O)N1CC3(CC(c4nc(C5CC5)n[nH]4)C3)C1)C2 [compound 901]
IC50: 136 nM

O=C(N1CC2(CCC(Oc3cnc(C(F)(F)F)cn3)CC2)C1)N1CC2(CC(c3nnc(C4CC4)[nH]3)C2)C1 [compound 74]
IC50: 0.77 nM

O=C(N1CC2(CC(c3nnc(C4CC4)[nH]3)C2)C1)N1CC2(CC[C@H](Oc3cnc(C(F)(F)F)cn3)C2)C1 [compound 90]
IC50: 7.88 nM

CC(C)(C)n1nnc(C2(c3ccc(C4CN(C(=O)N5CC6(CC(c7nnc(C8CC8)[nH]7)C6)C5)C4)cc3)CC2)n1 [compound 365]
IC50: 0.06 nM

O=C(N1CC2(CC(Cc3ccc(S(=O)(=O)C4CC4)cc3)C2)C1)N1CC2(CC(c3nc(C4CC4)n[nH]3)C2)C1 [compound 859]
IC50: 0.19 nM

Cn1ncc(CN2CC3(C2)CN(C(=O)N2CC4(CC(c5nc(C6CC6)n[nH]5)C4)C2)C3)c1S(N)(=O)=O [compound 580]
IC50: 679 nM

O=C(N1CC2(CC(Cn3cc(C4(C(F)(F)F)CC4)cn3)C2)C1)N1CC2(CC(c3nc(C4CC4)n[nH]3)C2)C1 [compound 711]
IC50: 0.2 nM

N=[S@](=O)(c1ccc(CC2CC3(C2)CN(C(=O)N2CC4(CC(c5nnc(C6(N)CC6)[nH]5)C4)C2)C3)cc1)C(F)(F)F (stereo in doubt) [Example 474, [6-[5-(1-aminocyclopropyl)-4H-1,2,4-triazol-3-yl]-2-azaspiro[3.3]heptan-2-yl]-[6-[[4-(trifluoromethyl-sulfonimidoyl)phenyl]methyl]-2-azaspiro[3.3]heptan-2-yl]methanone]
IC50: 4.59 nM

O=C(N1CC(NCc2ccc(C(F)(F)F)cc2Cl)C1)N1CC2(CC(c3nnc(C4CC4)[nH]3)C2)C1 [compound 190]
IC50: 12.6 nM

O=C(N1CC2(CC(c3nc(C4(F)CC4)n[nH]3)C2)C1)N1CC2(CN(Cc3ncc(C(F)(F)F)s3)C2)C1 [compound 598]
IC50: 1.89 nM

N#Cc1cc(C(F)(F)F)ncc1OC1CCC2(C1)CN(C(=O)N1CC3(CC(c4nnc(C5CC5)[nH]4)C3)C1)C2 (racemic) [compound 154]
IC50: 3.5 nM
